Experimental data published in PubChem BioAssay AID226 (DTP/NCI, 2004).
“And” between values parts separate entries of the source, which are not always exact repeats. Equal entries are not always repeated. Inconclusive results and toxic doses are left out.

System: B6C3F1 mice, intracerebral ependymoblastoma, median survival T/C
Test: NCI In Vivo Anticancer Drug Screen. Data for tumor model Ependymoblastoma (intracerebral) in B6C3F1 mice
Conditions: endpoint: median survival time, higher = longer survival
Method: The antitumor activity of compounds was measured in mice bearing transplantable tumors. Survival or tumor size were measured and the results are expressed as the measurement made in the treated group (T) divided by the measurement made in the vehicle treated control group (C). The tumor model used in this assay is Ependymoblastoma (intracerebral) in B6C3F1 mice

[1] = dose: 12.5 mg/kg/injection, schedule: Q01DX009 (ip), vehicle: saline with Tween-80
[2] = dose: 25.0 mg/kg/injection, schedule: Q01DX009 (ip), vehicle: saline with Tween-80
[3] = dose: 12.5 mg/kg/injection, schedule: Q01DX005 (ip), vehicle: Klucel (hydroxypropylcellulose) (HPC)
[4] = dose: 25.0 mg/kg/injection, schedule: Q01DX005 (ip), vehicle: Klucel (hydroxypropylcellulose) (HPC)
[5] = dose: 50.0 mg/kg/injection, schedule: Q01DX005 (ip), vehicle: Klucel (hydroxypropylcellulose) (HPC)
[6] = dose: 32.0 mg/kg/injection, schedule: Q01DX005 (ip), vehicle: saline with Tween-80

## CN1c2c(nc(N)[nH]c2=O)NCC1CCNc1ccc(C(=O)NC(CCC(=O)O)C(=O)O)cc1 (configuration not stated)
dose: 50.0 mg/kg/injection, schedule: Q#ADX018 (ip), vehicle: saline
  T/C: 114 % of control
dose: 100.0 mg/kg/injection, schedule: Q01DX009 (ip), vehicle: saline
  T/C: 111 % of control and 114 % of control
dose: 100.0 mg/kg/injection, schedule: Q12HX018 (ip), vehicle: saline
  T/C: 122 % of control
dose: 100.0 mg/kg/injection, schedule: Q#A X018 (ip), vehicle: saline
  T/C: 195 % of control
dose: 100.0 mg/kg/injection, schedule: Q#ADX018 (ip), vehicle: saline
  T/C: 114 % of control
dose: 200.0 mg/kg/injection, schedule: Q01DX009 (ip), vehicle: saline
  T/C: 105 % of control and 115 % of control
dose: 200.0 mg/kg/injection, schedule: Q#A X018 (ip), vehicle: saline
  T/C: 216 % of control
dose: 200.0 mg/kg/injection, schedule: Q#ADX018 (ip), vehicle: saline
  T/C: 119 % of control
dose: 400.0 mg/kg/injection, schedule: Q01DX009 (ip), vehicle: saline
  T/C: 109 % of control
dose: 400.0 mg/kg/injection, schedule: Q#A X018 (ip), vehicle: saline
  T/C: 190 % of control
dose: 800.0 mg/kg/injection, schedule: Q01DX009 (ip), vehicle: saline
  T/C: 121 % of control and 122 % of control
dose: 1600.0 mg/kg/injection, schedule: Q01DX009 (ip), vehicle: saline
  T/C: 120 % of control

## CN(C)C=O
dose: 50.0 mg/kg/injection, schedule: Q01DX005 (ip), vehicle: saline
  T/C: 92 % of control and 112 % of control
dose: 100.0 mg/kg/injection, schedule: Q01DX005 (ip), vehicle: saline
  T/C: 96 % of control and 98 % of control and 115 % of control
dose: 200.0 mg/kg/injection, schedule: Q01DX005 (ip), vehicle: saline
  T/C: 94 % of control and 99 % of control and 109 % of control
dose: 400.0 mg/kg/injection, schedule: Q01DX005 (ip), vehicle: saline
  T/C: 94 % of control and 99 % of control and 113 % of control
dose: 800.0 mg/kg/injection, schedule: Q01DX005 (ip), vehicle: saline
  T/C: 93 % of control and 102 % of control and 105 % of control
dose: 1600.0 mg/kg/injection, schedule: Q01DX005 (ip), vehicle: saline
  T/C: 93 % of control
dose: 2400.0 mg/kg/injection, schedule: Q01DX005 (ip), vehicle: saline
  T/C: 97 % of control

## CC1(C)OC2C(COC(=O)c3ccc([N+](=O)[O-])cc3)OC(NC(=O)N(CCCl)N=O)C2O1 (configuration not stated)
dose: 5.0 mg/kg/injection, schedule: Q01DX009 (ip), vehicle: saline
  T/C: 100 % of control
dose: 10.0 mg/kg/injection, schedule: Q01DX009 (ip), vehicle: saline
  T/C: 207 % of control
[1]
  T/C: 195 % of control
[2]
  T/C: 248 % of control

## Nc1ccn(C2OC(COC(=O)C34CC5CC(CC(C5)C3)C4)C(O)C2O)c(=O)n1 (configuration not stated)
dose: 6.25 mg/kg/injection, schedule: Q01DX005 (ip), vehicle: Klucel (hydroxypropylcellulose) (HPC)
  T/C: 98 % of control and 105 % of control
[3]
  T/C: 100 % of control and 105 % of control
[4]
  T/C: 104 % of control and 116 % of control
[5]
  T/C: 109 % of control

## O=CC(NC(=O)N(CCCl)N=O)C(O)C(O)C(O)CO (configuration not stated)
dose: 0.12 mg/kg/injection, schedule: Q01DX005 (ip), vehicle: saline
  T/C: 97 % of control and 99 % of control and 108 % of control
dose: 0.13 mg/kg/injection, schedule: Q01DX005 (ip), vehicle: saline
  T/C: 91 % of control and 93 % of control
dose: 1.0 mg/kg/injection, schedule: Q01DX001 (ip), vehicle: Klucel (hydroxypropylcellulose) (HPC)
  T/C: 93 % of control and 104 % of control and 107 % of control
dose: 1.0 mg/kg/injection, schedule: Q01DX005 (ip), vehicle: Klucel (hydroxypropylcellulose) (HPC)
  T/C: 108 % of control
dose: 2.0 mg/kg/injection, schedule: Q01DX001 (ip), vehicle: Klucel (hydroxypropylcellulose) (HPC)
  T/C: 99 % of control and 103 % of control and 108 % of control
dose: 2.0 mg/kg/injection, schedule: Q01DX005 (ip), vehicle: Klucel (hydroxypropylcellulose) (HPC)
  T/C: 119 % of control
dose: 3.13 mg/kg/injection, schedule: Q01DX001 (ip), vehicle: saline
  T/C: 115 % of control
dose: 4.0 mg/kg/injection, schedule: Q01DX001 (ip), vehicle: Klucel (hydroxypropylcellulose) (HPC)
  T/C: 100 % of control and 107 % of control and 108 % of control
dose: 4.0 mg/kg/injection, schedule: Q01DX009 (ip), vehicle: saline
  T/C: 195 % of control
dose: 6.25 mg/kg/injection, schedule: Q01DX001 (ip), vehicle: saline
  T/C: 122 % of control
dose: 8.0 mg/kg/injection, schedule: Q01DX001 (ip), vehicle: Klucel (hydroxypropylcellulose) (HPC)
  T/C: 103 % of control and 110 % of control and 113 % of control
dose: 16.0 mg/kg/injection, schedule: Q01DX001 (ip), vehicle: Klucel (hydroxypropylcellulose) (HPC)
  T/C: 111 % of control and 115 % of control and 119 % of control
dose: 25.0 mg/kg/injection, schedule: Q01DX001 (ip), vehicle: saline
  T/C: 157 % of control

## O=c1ccc2ccccc2o1
[3]
  T/C: 100 % of control
[4]
  T/C: 92 % of control
dose: 45.0 mg/kg/injection, schedule: Q01DX005 (ip), vehicle: saline with Tween-80
  T/C: 103 % of control
[5]
  T/C: 108 % of control
dose: 90.0 mg/kg/injection, schedule: Q01DX005 (ip), vehicle: saline with Tween-80
  T/C: 98 % of control
dose: 100.0 mg/kg/injection, schedule: Q01DX005 (ip), vehicle: Klucel (hydroxypropylcellulose) (HPC)
  T/C: 104 % of control

## O=C1NC(c2ccc(Cl)cc2)(c2ccc(Cl)cc2)C(=O)N1Cl
dose: 1.56 mg/kg/injection, schedule: Q01DX009 (ip), vehicle: saline with Tween-80
  T/C: 102 % of control
dose: 3.13 mg/kg/injection, schedule: Q01DX009 (ip), vehicle: saline with Tween-80
  T/C: 105 % of control
dose: 6.25 mg/kg/injection, schedule: Q01DX009 (ip), vehicle: saline with Tween-80
  T/C: 102 % of control
[1]
  T/C: 101 % of control and 104 % of control
[2]
  T/C: 95 % of control and 99 % of control
dose: 50.0 mg/kg/injection, schedule: Q01DX009 (ip), vehicle: saline with Tween-80
  T/C: 101 % of control

## CN(C)N=Nc1ccc([N+](=O)[O-])cc1C(N)=O
[6]
  T/C: 112 % of control
dose: 256.0 mg/kg/injection, schedule: Q01DX005 (ip), vehicle: saline with Tween-80
  T/C: 167 % of control
dose: 512.0 mg/kg/injection, schedule: Q01DX005 (ip), vehicle: saline with Tween-80
  T/C: 150 % of control

## CN(Cc1cnc2nc(N)nc(N)c2n1)c1ccc(C(=O)N[C@@H](CCC(=O)O)C(=O)O)cc1
dose: 4.0 mg/kg/injection, schedule: Q01DX009 (ip), vehicle: saline with Tween-80
  T/C: 118 % of control
dose: 4.0 mg/kg/injection, schedule: Q04DX003 (ip), vehicle: saline with Tween-80
  T/C: 118 % of control
dose: 8.0 mg/kg/injection, schedule: Q01DX009 (ip), vehicle: saline with Tween-80
  T/C: 106 % of control
dose: 8.0 mg/kg/injection, schedule: Q04DX003 (ip), vehicle: saline with Tween-80
  T/C: 110 % of control
dose: 16.0 mg/kg/injection, schedule: Q01DX009 (ip), vehicle: saline with Tween-80
  T/C: 111 % of control
dose: 16.0 mg/kg/injection, schedule: Q04DX003 (ip), vehicle: saline with Tween-80
  T/C: 98 % of control
dose: 32.0 mg/kg/injection, schedule: Q01DX009 (ip), vehicle: saline with Tween-80
  T/C: 109 % of control

## COC1C(O)C(C)OC(OC2C(Oc3cccc4c(O)c5c(=O)oc6ccc(C)c7c(=O)oc(c34)c5c67)OC(C)C(O)C2O)C1O (configuration not stated)
dose: 1.0 mg/kg/injection, schedule: Q01DX005 (ip), vehicle: saline
  T/C: 105 % of control
dose: 2.0 mg/kg/injection, schedule: Q01DX005 (ip), vehicle: saline with Tween-80
  T/C: 94 % of control and 105 % of control
dose: 2.0 mg/kg/injection, schedule: Q01DX005 (ip), vehicle: saline
  T/C: 98 % of control
dose: 4.0 mg/kg/injection, schedule: Q01DX005 (ip), vehicle: saline with Tween-80
  T/C: 99 % of control and 102 % of control
dose: 4.0 mg/kg/injection, schedule: Q01DX005 (ip), vehicle: saline
  T/C: 96 % of control
dose: 8.0 mg/kg/injection, schedule: Q01DX005 (ip), vehicle: saline with Tween-80
  T/C: 102 % of control and 104 % of control
dose: 8.0 mg/kg/injection, schedule: Q01DX005 (ip), vehicle: saline
  T/C: 101 % of control
dose: 16.0 mg/kg/injection, schedule: Q01DX005 (ip), vehicle: saline with Tween-80
  T/C: 100 % of control and 105 % of control
dose: 16.0 mg/kg/injection, schedule: Q01DX005 (ip), vehicle: saline
  T/C: 93 % of control
[6]
  T/C: 106 % of control and 89 % of control
dose: 32.0 mg/kg/injection, schedule: Q01DX005 (ip), vehicle: saline
  T/C: 98 % of control
dose: 64.0 mg/kg/injection, schedule: Q01DX005 (ip), vehicle: saline with Tween-80
  T/C: 102 % of control and 108 % of control
dose: 64.0 mg/kg/injection, schedule: Q01DX005 (ip), vehicle: saline
  T/C: 103 % of control
dose: 128.0 mg/kg/injection, schedule: Q01DX005 (ip), vehicle: saline with Tween-80
  T/C: 106 % of control and 111 % of control
dose: 128.0 mg/kg/injection, schedule: Q01DX005 (ip), vehicle: saline
  T/C: 98 % of control
